Measured values published in US20250257069A1, “JAK INHIBITOR ANALOGS, FORMULATIONS, AND USES THEREOF” (THE REGENTS OF THE UNIVERSITY OF MICHIGAN, priority 2022, published 2025).
Where two headings read alike, the source gives them in different places. Blank lines part the entries; values can stand above or below the compound they belong to.

Experiments:
HEL 92.1.7 cells = test: Anti-proliferative assay in HEL cells (CellTiter 96 Aqueous); type: cell-based, Human; settings: 3 days
Description: (§1) Cell Culture and anti-proliferative assay. […] Cells were incubated at 37° C. in a humidified atmosphere of 5% CO2. Cells were seeded into 96-well culture plates at the density of approximately 8000 cells per well and treated with various concentrations of compounds for 3 days in final volumes of 200 μL. Upon end point, cells were treated using CellTiter 96 Aqueous Assay Reagents (Promega Corporation, Madison, USA) according to the provider's instruction. Briefly, MITS and PMS solution were thawed and mixed (20:1, v/v) before use and pipet appropriate amount of the mixed solution into each well of the 96 well assay plates. The plates were incubated for 1-4 hours at 37° C. in a humidified atmosphere of 5% CO2. The absorbance at 490 nm was recorded using CYTATION 5 imaging reader (BioTek, VT, USA). IC50 values were calculated using percentage of growth versus untreated control.

[1] = following a single oral dose; cited from earlier work
SET-2 cells = test: Anti-proliferative assay in SET-2 cells (CellTiter 96 Aqueous); type: cell-based, Human; settings: 3 days
Description: as §1

DSS-induced colitis [2] = test: H&E staining of colon tissues in DSS-induced colitis model; type: in vivo, mice; settings: 5, 10 mg/kg
Description: H&E Staining of Colon tissues: After dissecting and transecting the colon, a feeding needle and 5 ml syringe were used to intubate and flush the colon with ice-cold PBS until the stool was flushed out. Scissors were used to incise longitudinally from distal to proximal end of the colon and the colon tissue could then be expanded as a flat sheet. The edge of the distal colon was grasped using a pair of forceps and the colon tissue was rotated into a swiss roll. The roll was firmly grasped and transected using a 27 G ½ needle. […] The Swiss roll was then paraffin-embedded, sectioned, mounted, and stained with H&E to determine the extent of damage to the colon from the distal (inside end) to the proximal (outside end).

JAK3 = JAK3 (Homo sapiens (Human), UniProt P52333); test: Kinase-Glo Max JAK3 kinase assay (BPS Bioscience kit); type: biochemical; settings: purified enzyme, 0.01-10,000 nM
[3] = Pharmacokinetics in mice after oral MMT3-72 (LC-MS/MS of plasma, GI tissues, GI content); type: in vivo, C57BL/6 female mice
Description: LC-MS analysis of MMT3-72and MMT3-72-M2 in biological samples: MMT3-72 and MMT3-72-M2 concentrations in plasma (ng/mil) and tissues (ng/g) were determined by the LC-MS/MS method that was developed and validated for this study. The HPLC method was conducted on a Shimadzu LC-20AD HPLC system (Kyoto, Japan), and chromatographic separation was achieved using a Waters XBridage reverse phase C18 column (5 cm×2.1 mm I.D., packed with 3.5 μm). The flow rate of gradient elution was 0.4 ml/min with mobile phase A (0.1% formic acid in purified deionized water) and mobile phase B (0.1% formic acid in acetonitrile). An AB Sciex QTrap 4500 mass spectrometer (AB Sciex, Framingham, USA) in the positive-ion multiple reaction monitoring (MRM) mode was used for detection. Protonated molecular ions and the respective ion products were monitored at the transitions of m/z 811.3>737.4 for MMT3-72 and 472.3>416.0 for the MMT3-72-M2. Data was processed with software Analyst (version 1.6).
Pharmacokinetics in mice. Briefly, C57BL/6 female mice were orally dosed with 10 mg/kg MMT3-72. At 0.5, 2, 4, 12, 24 h, mice were sacrificed, and blood samples were collected by drawing directly from the heart Intestinal tissue samples were collected and homogenized in PBS to 10% homogenate. The contents of small and large intestine were collected and homogenized in PBS. Afterwards, concentrations of MMT3-72, MMT3-72-M2,5-ASA in the plasma, intestinal tissues, and intestinal content were determined by liquid chromatography-tandem mass spectrometry (LC-MS/MS) analysis using method described above.

JAK1 = JAK1 (Homo sapiens (Human), UniProt P23458); test: Kinase-Glo Max JAK1 kinase assay (BPS Bioscience kit); type: biochemical; settings: purified enzyme, 0.01-10,000 nM
Description: (§2) In vitro activity to inhibit JAK enzymes: JAK1, JAK2, JAK3, TYK2 assay kits were obtained from BPS Bioscience (San Diego, CA, USA). The assays were conducted according to manufacturer's protocols in 96-well microplates. Briefly, master mixtures (25 μL per well) were prepared for JAK1 and TYK2 assays (6 μL 5× kinase assay buffer+1 μL ATP (500 μM)+5 μL×10 IRS1-tide+13 μL distilled water) or for JAK2 and JAK3 assays (6 μl 5× kinase assay buffer+1 μl ATP (500 μM)+1 μl PTK substrate Poly(Glu:Tyr 4:1) (10 mg/mL)+17 μL distilled water), respectively. […] The reaction mixtures were incubated at 30° C. for 40 minutes. Finally, 50 μL of Kinase-Glo Max reagent (Promega, Madison, WL USA) was added to each well and the reactions were performed in darkness for 15 minutes at room temperature. The luminescence of the reaction mixture was read on a Synergy 2 microplate reader (Biotek).

TYK2 = TYK2 (Homo sapiens (Human), UniProt P29597); test: Kinase-Glo Max TYK2 kinase assay (BPS Bioscience kit); type: biochemical; settings: purified enzyme, 0.01-10,000 nM
Description: as §2

DSS-induced colitis [4] = test: DSS-induced colitis in mice; type: in vivo, C57BL/6 female mice; settings: oral; for improvement of DAI score or disease severity (in words): 1 mg/kg; for mice that developed moderate colitis / mice that developed severe colitis / mice that developed severe colitis with gross bleeding: day 5, n=10
Description: In vivo efficacy of MMT3-72 in treatment of DSS-induced colitis in mice: C57BL/6 female mice 6-8 weeks purchased from Charles River Laboratories and were randomly divided into different treatment groups. Acute colitis was induced by administering 3% DSS (MP Biomedicals, CA, USA) in distilled water continuously for 5 days and the control group received pure water (Snider, et al., Methods Mol Biol 2016, 1438, 245-254). […] Drugs were administered every other day orally by gavage in volume of 0.1 mL/10 g body weight. During the model establishment, body weight, stool consistency and gross blood in feces were monitored and recorded daily. After 5 days, mice were sacrificed and blood was collected. Serum was obtained by centrifugation and stored at −80° C. for further immune assay. Colon was excised and the length was measured.
To evaluate the efficacy of MMT3-72 in the treatment of UC in vivo, a colitis model was established in mice using dextran sodium sulfate (DSS). DSS in drinking water could trigger colitis in mice. The DSS-induced colitis model is widely used because of its relatively easy administration and high similarity with human UC. In this study, mice treated with 3% DSS water developed symptoms of colitis such as bloody stools and diarrhea on day 5. Disease activity index (DAI) was monitored for the severeness of disease in mice: Normal stool consistency with negative hemoccult: score 0; Soft stools with positive hemoccult: score 1; Very soft stools with traces of blood: score 2; Watery stools with visible rectal bleeding: score 3. […]. […].

[5] = In-vivo metabolite identification in mouse plasma, colon and feces; settings: 6 h after oral 10 mg/kg MMT3-72
Description: Activation of MMT73-72 and Metabolite identification: In-vivo metabolite identification was conducted using mouse plasma, colon and feces samples that collected at 6 h after oral administration of MMT3-72 (10 mg/kg), Liquid chromatography tandem mass spectrometry was employed to separate and identify the possible metabolites. The LC-MS/MS method consisted of a Shimadzu LC-20AD HPLC system (Kyoto, Japan). Chromatographic separation of MMT3-72 and its metabolites was achieved using a Waters XBridage reverse phase C18 column (15 cm×2.1 mm I.D., packed with […]). A high resolution AB Sciex X500R QTOF mass spectrometer (AB Sciex, Farmingham, USA) in the positive-ion Information Dependent Acquisition (IDA) mode was used for confirmation of accurate molecular weight. The mass range was recorded from m/z 100 to 1000 Da. The collision energy was set to 50 V for TOF MSMS. Data was collected with software SCIEX OS, and then processed with software Metabolite Pilot 2.0 (AB Sciex, Farmingham, USA).

JAK2 = JAK2 (Homo sapiens (Human), UniProt O60674); test: Kinase-Glo Max JAK2 kinase assay (BPS Bioscience kit); type: biochemical; settings: purified enzyme, 0.01-10,000 nM
JAK2, sequence (O60674 whole entry): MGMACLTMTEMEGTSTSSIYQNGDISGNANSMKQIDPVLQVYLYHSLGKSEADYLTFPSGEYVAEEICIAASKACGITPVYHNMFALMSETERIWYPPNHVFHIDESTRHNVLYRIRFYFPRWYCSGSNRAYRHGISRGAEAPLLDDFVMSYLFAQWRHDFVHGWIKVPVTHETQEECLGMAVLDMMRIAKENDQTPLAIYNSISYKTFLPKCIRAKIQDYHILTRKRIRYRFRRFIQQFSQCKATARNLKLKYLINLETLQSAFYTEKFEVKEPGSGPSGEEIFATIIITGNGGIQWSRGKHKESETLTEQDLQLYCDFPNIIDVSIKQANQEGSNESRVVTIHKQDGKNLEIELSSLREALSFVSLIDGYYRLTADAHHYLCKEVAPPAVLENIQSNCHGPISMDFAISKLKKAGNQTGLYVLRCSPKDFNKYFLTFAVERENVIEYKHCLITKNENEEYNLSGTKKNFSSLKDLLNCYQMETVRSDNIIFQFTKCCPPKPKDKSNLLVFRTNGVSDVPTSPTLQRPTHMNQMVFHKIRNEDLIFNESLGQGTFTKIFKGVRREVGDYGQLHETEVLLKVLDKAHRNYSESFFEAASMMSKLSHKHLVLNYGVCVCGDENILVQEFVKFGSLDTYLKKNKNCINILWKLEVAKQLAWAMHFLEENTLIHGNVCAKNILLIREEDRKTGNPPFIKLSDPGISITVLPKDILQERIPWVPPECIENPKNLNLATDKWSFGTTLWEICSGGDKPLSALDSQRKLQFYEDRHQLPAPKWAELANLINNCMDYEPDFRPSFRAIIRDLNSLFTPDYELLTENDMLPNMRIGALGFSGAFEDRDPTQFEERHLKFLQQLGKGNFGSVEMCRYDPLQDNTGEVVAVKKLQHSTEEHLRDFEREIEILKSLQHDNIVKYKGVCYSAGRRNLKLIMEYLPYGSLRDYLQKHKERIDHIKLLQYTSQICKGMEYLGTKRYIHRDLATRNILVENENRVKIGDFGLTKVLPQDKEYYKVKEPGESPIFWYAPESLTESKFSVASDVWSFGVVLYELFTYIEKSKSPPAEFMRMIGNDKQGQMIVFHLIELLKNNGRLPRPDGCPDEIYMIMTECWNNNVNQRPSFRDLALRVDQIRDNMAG

JAK3, sequence (P52333 whole entry): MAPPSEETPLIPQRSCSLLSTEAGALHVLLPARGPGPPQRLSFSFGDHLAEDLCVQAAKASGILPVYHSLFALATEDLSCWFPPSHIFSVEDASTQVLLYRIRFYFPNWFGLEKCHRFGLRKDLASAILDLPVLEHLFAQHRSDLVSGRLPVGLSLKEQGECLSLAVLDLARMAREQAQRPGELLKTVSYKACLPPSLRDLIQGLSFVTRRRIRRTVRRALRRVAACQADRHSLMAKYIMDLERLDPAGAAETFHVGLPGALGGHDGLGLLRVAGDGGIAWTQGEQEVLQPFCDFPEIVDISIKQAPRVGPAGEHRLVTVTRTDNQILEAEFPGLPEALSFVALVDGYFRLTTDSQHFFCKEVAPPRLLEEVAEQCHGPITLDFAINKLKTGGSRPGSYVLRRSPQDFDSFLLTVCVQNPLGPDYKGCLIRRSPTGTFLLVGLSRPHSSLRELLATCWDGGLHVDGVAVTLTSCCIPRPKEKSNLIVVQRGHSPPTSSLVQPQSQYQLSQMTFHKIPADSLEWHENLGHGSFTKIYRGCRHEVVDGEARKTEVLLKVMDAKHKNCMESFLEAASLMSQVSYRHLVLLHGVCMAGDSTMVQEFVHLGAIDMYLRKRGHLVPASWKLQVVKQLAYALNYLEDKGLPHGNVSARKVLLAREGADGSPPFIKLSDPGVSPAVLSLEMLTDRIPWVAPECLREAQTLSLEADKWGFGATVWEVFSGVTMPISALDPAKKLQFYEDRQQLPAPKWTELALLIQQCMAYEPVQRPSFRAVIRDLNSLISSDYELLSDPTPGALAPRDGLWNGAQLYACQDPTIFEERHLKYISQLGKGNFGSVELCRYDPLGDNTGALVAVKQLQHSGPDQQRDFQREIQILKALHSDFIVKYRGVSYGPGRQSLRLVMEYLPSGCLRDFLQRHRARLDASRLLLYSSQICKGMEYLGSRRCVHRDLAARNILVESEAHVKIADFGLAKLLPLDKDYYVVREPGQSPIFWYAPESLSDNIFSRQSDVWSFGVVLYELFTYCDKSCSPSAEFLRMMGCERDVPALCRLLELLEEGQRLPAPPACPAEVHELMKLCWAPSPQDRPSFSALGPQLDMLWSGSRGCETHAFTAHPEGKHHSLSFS
JAK1, sequence (P23458 whole entry): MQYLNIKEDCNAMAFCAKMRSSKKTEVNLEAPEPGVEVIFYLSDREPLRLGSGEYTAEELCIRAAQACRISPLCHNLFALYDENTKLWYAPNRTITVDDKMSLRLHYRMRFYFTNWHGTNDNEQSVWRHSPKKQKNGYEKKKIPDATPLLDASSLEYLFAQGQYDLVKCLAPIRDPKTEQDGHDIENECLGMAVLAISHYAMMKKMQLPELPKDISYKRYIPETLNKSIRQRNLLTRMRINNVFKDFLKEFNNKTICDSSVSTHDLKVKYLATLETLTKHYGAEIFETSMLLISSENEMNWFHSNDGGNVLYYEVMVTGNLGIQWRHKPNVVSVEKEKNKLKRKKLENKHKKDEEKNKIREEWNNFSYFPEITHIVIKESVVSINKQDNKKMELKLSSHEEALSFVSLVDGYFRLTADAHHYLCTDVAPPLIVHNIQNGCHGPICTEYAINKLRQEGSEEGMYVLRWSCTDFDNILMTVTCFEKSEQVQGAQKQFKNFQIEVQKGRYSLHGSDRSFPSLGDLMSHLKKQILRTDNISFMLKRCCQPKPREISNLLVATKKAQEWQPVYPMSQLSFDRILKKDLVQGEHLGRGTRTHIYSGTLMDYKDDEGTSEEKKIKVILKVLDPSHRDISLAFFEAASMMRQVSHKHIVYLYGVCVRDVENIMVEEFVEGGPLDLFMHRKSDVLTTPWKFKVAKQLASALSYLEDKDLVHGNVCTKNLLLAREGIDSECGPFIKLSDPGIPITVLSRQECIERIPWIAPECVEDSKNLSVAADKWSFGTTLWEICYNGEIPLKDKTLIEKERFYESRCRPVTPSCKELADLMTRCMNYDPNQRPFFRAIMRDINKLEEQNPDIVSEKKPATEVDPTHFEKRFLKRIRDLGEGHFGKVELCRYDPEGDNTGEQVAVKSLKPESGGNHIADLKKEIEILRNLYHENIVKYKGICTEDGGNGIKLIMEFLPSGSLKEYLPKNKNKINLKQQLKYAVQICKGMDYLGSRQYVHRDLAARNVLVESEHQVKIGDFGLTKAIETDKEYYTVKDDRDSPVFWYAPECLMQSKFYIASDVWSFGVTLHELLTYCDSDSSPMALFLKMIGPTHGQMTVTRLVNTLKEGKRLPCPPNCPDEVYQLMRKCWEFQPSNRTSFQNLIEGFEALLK
TYK2, sequence (P29597 whole entry): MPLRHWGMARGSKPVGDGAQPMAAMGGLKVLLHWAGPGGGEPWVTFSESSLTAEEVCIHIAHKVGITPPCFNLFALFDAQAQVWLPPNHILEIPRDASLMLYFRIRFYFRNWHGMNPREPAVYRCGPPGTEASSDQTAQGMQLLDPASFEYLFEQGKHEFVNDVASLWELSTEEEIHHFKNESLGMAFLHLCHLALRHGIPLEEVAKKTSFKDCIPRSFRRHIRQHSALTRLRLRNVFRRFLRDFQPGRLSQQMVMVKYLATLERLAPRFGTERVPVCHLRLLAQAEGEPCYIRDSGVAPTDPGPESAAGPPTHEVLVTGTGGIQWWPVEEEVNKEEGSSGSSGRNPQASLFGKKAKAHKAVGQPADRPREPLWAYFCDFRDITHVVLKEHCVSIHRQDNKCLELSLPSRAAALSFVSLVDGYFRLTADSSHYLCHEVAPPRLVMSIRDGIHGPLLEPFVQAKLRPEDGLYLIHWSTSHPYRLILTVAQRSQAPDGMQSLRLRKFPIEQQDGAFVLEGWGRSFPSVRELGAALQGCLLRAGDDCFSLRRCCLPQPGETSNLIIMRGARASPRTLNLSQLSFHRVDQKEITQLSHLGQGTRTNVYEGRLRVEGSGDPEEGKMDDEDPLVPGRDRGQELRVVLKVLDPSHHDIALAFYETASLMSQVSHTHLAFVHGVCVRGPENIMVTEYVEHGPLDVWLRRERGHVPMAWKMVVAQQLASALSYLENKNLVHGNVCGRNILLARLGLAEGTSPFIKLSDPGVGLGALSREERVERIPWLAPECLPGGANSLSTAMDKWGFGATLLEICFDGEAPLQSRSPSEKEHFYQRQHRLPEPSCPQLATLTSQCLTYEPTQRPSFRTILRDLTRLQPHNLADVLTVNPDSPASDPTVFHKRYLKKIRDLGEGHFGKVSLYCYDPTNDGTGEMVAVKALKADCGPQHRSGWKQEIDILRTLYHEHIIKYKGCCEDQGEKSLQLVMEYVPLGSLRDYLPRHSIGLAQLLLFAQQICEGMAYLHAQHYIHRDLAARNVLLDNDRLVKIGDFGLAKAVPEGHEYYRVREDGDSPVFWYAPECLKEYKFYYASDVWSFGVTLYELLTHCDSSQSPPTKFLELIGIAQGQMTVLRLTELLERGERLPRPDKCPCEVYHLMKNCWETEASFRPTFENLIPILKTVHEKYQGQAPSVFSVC

Compound: Cc1cnc(Nc2ccc(OCCN3CCCC3)cc2)nc1Nc1cccc(S(=O)(=O)NC(C)(C)C)c1 [Fedratinib]
IC50 (HEL 92.1.7 cells; Homo sapiens, 72 h): 904 nM | portion excreted in feces as unchanged drug [1]: 23% | portion excreted to GI tract in feces [1]: 77% | IC50 (SET-2 cells; Homo sapiens, 72 h): 210 nM

IC50 (JAK3): 6820 nM | Cmax ([3]; female, C57BL/6, mouse, GI content (stomach, small intestine and colon content), oral 10 mg/kg MMT3-72, read-out: Cmax in GI content (stomach, small intestine and colon content)): > 50000 ng/g | detection in small intestine tissues, colon tissue or systemic circulation ([3]; oral 10 mg/kg MMT3-72, 0-24 hrs): not detected | IC50 (JAK1): 199 nM | IC50 (TYK2): 2980 nM | IC50 (JAK2): 448 nM
Compound: Cc1cnc(Nc2ccc(OCCOc3ccc(/N=N/c4ccc(C(=O)NCCC(=O)O)cc4)cc3C(=O)O)cc2)nc1Nc1cccc(S(=O)(=O)NC(C)(C)C)c1 [MMT3-72, (E)-2-(2-(4-((4-((3-(N-(tert-butyl)sulfamoyl)phenyl)amino)-5-methylpyrimidin-2-yl)amino)phenoxy)ethoxy)-5-((4-((2-carboxyethyl)carbamoyl)phenyl)diazenyl)benzoic acid]
IC50 (HEL 92.1.7 cells; Homo sapiens, 72 h): 5590 nM | epithelial loss and immune cell infiltration in colon tissue (H&E) (DSS-induced colitis [2]): reduced epithelium disruption and infiltration of immune cells in colon tissues | epithelial loss and immune cell infiltration in colon tissue (H&E) (DSS-induced colitis [2]; listed as MMT3972): reduced epithelial loss and decreased infiltration of immune cells | improvement of DAI score or disease severity (in words) (DSS-induced colitis [4]): did not improve DAI score or disease severity | improvement of DAI score versus DSS induced colitis (DSS-induced colitis [4]; 5 mg/kg): 5 fold | mice that developed moderate colitis (DSS-induced colitis [4]; 5 mg/kg): 10% | mice that developed severe colitis (DSS-induced colitis [4]; 5 mg/kg): no mouse developed severe colitis | improvement of DAI score in DSS-induced colitis model (DSS-induced colitis [4]; 10 mg/kg): 10 fold | recovery of colon length from DSS-induced colitis (DSS-induced colitis [4]; 10 mg/kg): recovered the colon length | mice that developed moderate colitis (DSS-induced colitis [4]; 10 mg/kg): no mice | mice that developed severe colitis with gross bleeding (DSS-induced colitis [4]; 10 mg/kg): no mice | IC50 (SET-2 cells; Homo sapiens, 72 h): 515 nM | detection in plasma, colon tissue and feces [5]: only detected in the feces with no detection in the plasma and the colon tissues

IC50 (JAK3): 701 nM | Cmax ([3]; female, C57BL/6, mouse, colon tissue and small intestinal tissues, oral 10 mg/kg MMT3-72, read-out: Cmax in colon tissue and small intestinal tissues): > 1500 ng/g | Cmax ([3]; female, C57BL/6, mouse, plasma, oral 10 mg/kg MMT3-72, read-out: Cmax in plasma): 8 ng/mL | concentration at 24 h ([3]; female, C57BL/6, mouse, small and large intestine tissues, oral 10 mg/kg MMT3-72, at 24 hrs, read-out: Cmin in small and large intestine tissues): 88.5 ng/mL | concentration in colon content relative to small intestine content ([3]; oral 10 mg/kg MMT3-72): 10 fold | time after which undetectable in plasma ([3]; oral 10 mg/kg MMT3-72): 4 h | IC50 (JAK1): 2 nM | IC50 (TYK2): 55.2 nM | IC50 (JAK2): 16.3 nM
Compound: Cc1cnc(Nc2ccc(OCCO)cc2)nc1Nc1cccc(S(=O)(=O)NC(C)(C)C)c1 [MMT3-72-M2, N-(tert-butyl)-3-((2-((4-(2-hydroxyethoxy)phenyl)amino)-5-methylpyrimidin-4-yl)amino)benzenesulfonamide]
IC50 (HEL 92.1.7 cells; Homo sapiens, 72 h): 2590 nM | IC50 (SET-2 cells; Homo sapiens, 72 h): 332 nM | detection in plasma, colon tissue and feces [5]: only detected in the colon tissues and the feces with low level in the plasma

Compound: COCCOCc1cc(Nc2ncc(C)c(Nc3cccc(S(=O)(=O)NC(C)(C)C)c3)n2)ccc1OCCN1CCCC1 [MMT3-83]
IC50 (HEL 92.1.7 cells): 2040 nM | IC50 (SET-2 cells): 645 nM

Compound: N#CC[C@H](C1CCCC1)n1cc(-c2ncnc3[nH]ccc23)cn1 [Ruxolitinib]
IC50 (HEL 92.1.7 cells; Homo sapiens, 72 h): 114 nM | IC50 (SET-2 cells; Homo sapiens, 72 h): ~145 nM

Compound: C[C@@H]1CCN(C(=O)CC#N)C[C@@H]1N(C)c1ncnc2[nH]ccc12 [Tofacitinib, reference compound]
improvement of DAI score or disease severity (in words) (DSS-induced colitis [4]): did not improve DAI score or disease severity | improvement of DAI score (in words) (DSS-induced colitis [4]; 5 mg/kg): did not show any improvement of DAI score | mice that developed moderate colitis (DSS-induced colitis [4]; 5 mg/kg): 80% | mice that developed severe colitis (DSS-induced colitis [4]; 5 mg/kg): 40% | improvement of DAI score (in words) (DSS-induced colitis [4]; 10 mg/kg): showed improvement of DAI score | recovery of colon length from DSS-induced colitis (DSS-induced colitis [4]; 10 mg/kg): recovered the colon length | mice that developed moderate colitis (DSS-induced colitis [4]; 10 mg/kg): 20% | mice that developed severe colitis with gross bleeding (DSS-induced colitis [4]; 10 mg/kg): 10%

Compound: CC[C@@H]1CN(C(=O)NCC(F)(F)F)C[C@@H]1c1cnc2cnc3[nH]ccc3n12 [Upadacitinib]
IC50 (HEL 92.1.7 cells; Homo sapiens, 72 h): 1010 nM | IC50 (SET-2 cells; Homo sapiens, 72 h): 69.6 nM

Compound: Deucravacitinib
IC50 (HEL 92.1.7 cells): ~347000 nM | IC50 (SET-2 cells): 7380 nM
